Test results published in article PMC5947527 (Chemical Science, 2015).
“Also recorded” adds a separate entry of the source. Non-standard residues stand in square brackets, D forms with d. Residues, ends and D or L forms follow the SMILES beside them. *: point of attachment. Decanoyl(3,6,9-trioxa) = COCCOCCOCC(=O)*; NBD = O=[N+]([O-])c1ccc(*)c2nonc12; dNle = CCCC[C@@H](N)C(=O)O; Nle = CCCC[C@H](N)C(=O)O; AEEA = NCCOCCOCC(=O)O; Ahx = NCCCCCC(=O)O

Test system: not listed separately
Assay: broncho-alveolar lavage fluid (BALF) retrieved from ventilated ICU patients with Acute Respiratory Distress Syndrome (ARDS); pooled samples from three patients
Settings: human, up to 30min

Compound	not cleaved	cleaved bond
MeO-PEG- D- Arg- D- Arg- D- Asn- D- Tyr- D- Gln- D- Nle- D- Arg- D- Arg- D- Lys- D- Ala- D- Arg-Gly- D- Thr-Lys(NBD)-OH	Stable in ARDS BALF	–
NBD-Ahx-Thr-Gly-Arg-Ala-Lys-Arg-Arg-Nle-Gln-Tyr-Asn-Arg-Arg-NH2	–	ArgP8-ArgP7, major, <5 min; also recorded: ArgP2-ArgP1, major, <5 min
NBD-Ahx-Thr-Gly-Arg-Ala-Lys-Arg-MeArg-Nle-Gln-Tyr-Asn-Arg-Arg-D-Phe-D-Val-NH2	Stable in ARDS BALF	–
NBD-Ahx-Thr-Gly-Arg-Ala-Lys-MeArg-MeArg-Nle-Gln-Tyr-Asn-MeArg-MeArg-NH2	Stable in ARDS BALF	–
NBD-Ahx-cyclo[Lys-Thr-Gly-Arg-Ala-Lys-Arg-Arg-Nle-Gln-Tyr-Asn-Arg-Arg-Gly]	–	Thr-Gly, first_seen, 10min; also recorded: Arg-Arg, major, 20min
NBD-Ahx-cyclo[Lys-Thr-Gly-Arg-Ala-Lys-Arg-Arg-Nle-Gln-Tyr-Asn-Arg-MeArg-Gly]	stability in BALF for over 30 minutes	–
NBD-PEG-D-Thr-Gly-D-Arg-D-Ala-D-Lys-D-Arg-D-Arg-D-Nle-D-Gln-D-Tyr-D-Asn-D-Arg-D-Arg-OH	Stable in ARDS BALF	–

Test system: methicillin-sensitive Staphylococcus aureus
Assay: Confocal labelling of MSSA with quantified fluorescence
Type: cell-based
Settings: MSSA, 10 μM, fluorescence normalized to UBI-3, mean ± SEM, n ≥ 3
Description: Fig. 6 Confocal Images of compounds UBI-3 to 9 with quantified fluorescence. Panels show methicillin-sensitive Staphylococcus aureus incubated with UBI-3 to 9 (all 10 μM) with quantification of bacterial fluorescence normalized to UBI-3 (bars represent mean (±SEM), n ≥ 3, ns = not significant, *** = p < 0.001, * = p < 0.05, scale bar = 10 μm).
Fig. 8 Confocal images and quantification of cyclic variants when compared to UBI-3. Panels show methicillin-sensitive Staphylococcus aureus incubated with cyclic UBI compounds (all 10 μM) with quantification of bacterial fluorescence normalized to UBI-3 (bars represent mean (±SEM), n ≥ 3, ns = not significant, ** = p < 0.01, scale bar = 10 μm).
Bacterial Culture and Labelling: Bacteria used were K. pneumoniae (ATCC BAA1706) ATCC, E. coli (ATCC 25922) ATCC, A. baumannii (J3433) Clinical Isolate, P. aeruginosa (J3284) Clinical Isolate, Methicillin Resistant S. aureus (MRSA) (ATCC25923) ATCC and Methicillin Sensitive S. aureus (MSSA) (ATCC 252) ATCC. All bacteria were grown on Lysogeny broth (LB) agar and from a single bacterial colony placed into 10ml of LB and incubated at 37°C for 16 hours in an orbital shaker.
Cultures were centrifuged at 4000rpm for 5 minutes and the pellet resuspended in 1ml phosphate buffered saline (PBS, Life Technologies). Following three further washes in PBS the cultures were reconstituted to 1 OD595 nm. Bacteria were counterstained with 5µM Syto 82 orange fluorescent nucleic acid stain (Invitrogen, CA, USA) in a shaking heat block at 37 °C for 20 minutes. For FCFM bacteria were stained with 1µM Calcein AM (Sigma, MO, USA) for 30 minutes at 37 °C. Counterstained bacteria were washed in PBS to remove excess dye. […]
Confocal Analysis and Fluorescence Quantification: 8-Well Lab-Tek II Confocal Chambers (VWR, PA, USA) were coated in fibronectin (for neutrophil experiments) or poly-d-lysine (for bacteria) at 37 °C for 20 minutes, then washed in PBS prior to bacterial innoculation. For co-culture assays, neutrophils were seeded on fibronectin coated wells at 1 x 10^5 neutrophils per well for 20 minutes and non-adherent neutrophils aspirated. Bacteria were added to each chamber to a final concentration of 0.5 OD595 nm with the desired final concentration of Smartprobe. A laser-scanning confocal imaging system (LSM510; Carl Zeiss, Jena, Germany), incorporating an upright Axioskop FS2 microscope (63× objective) was used for image acquisition and processing. Exposure to 488 nm light was limited to 5% of the maximum laser power in order to minimize toxicity. ‘Green’ fluorescence (for FAM and NBD) was excited with a dedicated 488 nm line and emitted light detected with meta detector (500-530 nM).
Syto nuclear and dyes were excited with a dedicated 543 nm line, and emitted light detected with meta detector (570-610 nM). Fields of view were chosen based on the counterstain and at least three fields of view were recorded for each condition. For affinity assays, following initial imaging, the fluid was aspirated and two gentle washes with PBS were performed. The chamber was re-imaged on confocal.
Analysis was with ImageJ (version 1.46r, National Institutes of Health, USA); the Syto channel was automatically thresholded (MaxEntropy, with a set threshold 0-47) and an ROI generated from this. The […]
mean fluorescence intensity on the probe channel within this ROI was quantified. Data presented represents the mean of three experiments, from each of which three separate fields of view were assessed. All experiments were performed at least three times unless otherwise stated and results expressed as mean ± SEM. Data was analysed by unpaired t-test and significance was determined as p<0.05 (GraphPad Prism version 5.01 for Windows, GraphPad Software, San Diego California USA).
Ex vivo Human Lung and FCFM Procedure: Human lung samples were obtained from patients undergoing surgical resection for lung carcinoma. All images were obtained on sections of normal lung […]

Compound	bacterial labelling (fluorescence compared with UBI-3)
CCCC[C@H](NC(=O)[C@H](CCCNC(=N)N)NC(=O)[C@H](CCCNC(=N)N)NC(=O)[C@H](CCCCN)NC(=O)[C@H](C)NC(=O)[C@H](CCCNC(=N)N)NC(=O)CNC(=O)[C@@H](NC(=O)[C@H](CCCCNc1ccc([N+](=O)[O-])c2nonc12)NC(=O)COCCOCCOC)[C@@H](C)O)C(=O)N[C@@H](CCC(N)=O)C(=O)N[C@@H](Cc1ccc(O)cc1)C(=O)N[C@@H](CC(N)=O)C(=O)N[C@@H](CCCNC(=N)N)C(=O)N[C@@H](CCCNC(=N)N)C(=O)NCCOCCOCC(=O)NCCOCCOCC(N)=O [UBI-6] ({Decanoyl(3,6,9-trioxa)}-K(NBD)TGRAKRR[Nle]QYNRR[AEEA][AEEA]-NH2)	loss of labelling on bacteria; also recorded: loss of labelling efficacy
CCCC[C@H](NC(=O)[C@H](CCCNC(=N)N)NC(=O)[C@H](CCCNC(=N)N)NC(=O)[C@H](CCCCN)NC(=O)[C@H](C)NC(=O)[C@H](CCCNC(=N)N)NC(=O)CNC(=O)[C@@H](NC(=O)CCCCCNc1ccc([N+](=O)[O-])c2nonc12)[C@@H](C)O)C(=O)N[C@@H](CCC(N)=O)C(=O)N[C@@H](Cc1ccc(O)cc1)C(=O)N[C@@H](CC(N)=O)C(=O)N[C@@H](CCCNC(=N)N)C(=O)N[C@@H](CCCNC(=N)N)C(=O)NCCOCCOCC(=O)NCCOCCOCC(N)=O [UBI-7] ({NBD-Ahx}-TGRAKRR[Nle]QYNRR[AEEA][AEEA]-NH2)	loss of bacterial labelling; also recorded: loss of labelling efficacy
CCCC[C@@H](NC(=O)[C@@H](CCCNC(=N)N)NC(=O)[C@@H](CCCNC(=N)N)NC(=O)[C@@H](CCCCN)NC(=O)[C@@H](C)NC(=O)[C@@H](CCCNC(=N)N)NC(=O)CNC(=O)[C@H](NC(=O)COCCOCCNc1ccc([N+](=O)[O-])c2nonc12)[C@H](C)O)C(=O)N[C@H](CCC(N)=O)C(=O)N[C@H](Cc1ccc(O)cc1)C(=O)N[C@H](CC(N)=O)C(=O)N[C@H](CCCNC(=N)N)C(=O)N[C@H](CCCNC(=N)N)C(=O)O [UBI-8] ({NBD-AEEA}-[dT]G[dR][dA][dK][dR][dR][dNle][dQ][dY][dN][dR][dR]-OH)	loss of labelling on bacteria; also recorded: loss of labelling efficacy
CCCC[C@@H](NC(=O)[C@@H](CCC(N)=O)NC(=O)[C@@H](Cc1ccc(O)cc1)NC(=O)[C@@H](CC(N)=O)NC(=O)[C@@H](CCCNC(=N)N)NC(=O)[C@@H](CCCNC(=N)N)NC(=O)COCCOCCOC)C(=O)N[C@H](CCCNC(=N)N)C(=O)N[C@H](CCCNC(=N)N)C(=O)N[C@H](CCCCN)C(=O)N[C@H](C)C(=O)N[C@H](CCCNC(=N)N)C(=O)NCC(=O)N[C@@H](C(=O)N[C@@H](CCCCNc1ccc([N+](=O)[O-])c2nonc12)C(=O)O)[C@H](C)O [UBI-9] ({Decanoyl(3,6,9-trioxa)}-[dR][dR][dN][dY][dQ][dNle][dR][dR][dK][dA][dR]G[dT]K(NBD)-OH)	loss of labelling on bacteria; also recorded: loss of labelling efficacy

Test system: not listed separately
Assay: Stability in ARDS bronchoalveolar lavage fluid (MALDI-TOF MS)
Type: in vitro ADME, human
Settings: human ARDS BALF pooled from three patients vs PBS, 5 and 30 min, MALDI-TOF MS
Source text: To determine the ability of UBI-3 to image bacteria in the continued presence of a complex inflammatory environment, bacteria were labelled with UBI-3 in the presence of broncho-alveolar lavage fluid (BALF) retrieved from ventilated ICU patients with Acute Respiratory Distress Syndrome (ARDS). ARDS BALF was utilised as ARDS is a severe life threatening pulmonary syndrome, characterized by a massive proteolytic and oxidative inflammatory environment within the distal alveolar region.[14] […] To design out susceptible amino acid cleavage points, a number of modifications were made (Table 1) and the functional consequences assessed. The chemical approaches pursued to improve resistance to degradation included replacing amino acids at the cleavage positions with non-natural amino acids such as N-methyl or D-amino acids,[15] and cyclisation of the peptide,[16] which could have the added benefit of enhancing affinity towards bacterial membrane.[17]
The Arg–Arg bonds were identified as the prominent position of degradation (Fig. 5) and Compounds UBI-4–9 (Table 1) were synthesised with a variety of substitutions around the degradation sites. The susceptible peptide bonds at P1–P2 and P7–P8 were blocked using N-MeArg (UBI-4), and to further mask these positions, a long polyethylene glycol (PEG) chain and/or a D-amino acid were positioned at the carboxylic and/or amino termini (UBI-5–7).
We hypothesized that cyclisation of the sequence would allow for greater stability and also improve bacterial affinity and therefore cyclic variants of UBI-3 were synthesized (UBI-10 and UBI-11), which were both found to be stable in BALF for 5 minutes (Fig. 7 and S3 ESI ^†). […] However, these studies also highlighted the degradation of UBI-10 at 10 minutes, guiding the temporal constraints of Smartprobe delivery and optical imaging.
Fig. 7 UBI-10 remains stable in ARDS BALF at 5 minutes. (A) Structure of UBI-10 with breakdown products in ARDS BALF. […] TEXT PRINTED IN THE PICTURE: UBI-10: Molecular Weight: 2118.41 | Fragment A: Molecular Weight: 1923.18 | Fragment B: Molecular Weight: 1980.23 DOUBTS OF THE COPYIST ABOUT THIS PICTURE: UBI-10, Molecular Weight: very small print, 2118.41 is the best reading; the digits 8 and 4 are uncertain / Fragment A, Molecular Weight: very small print, 1923.18 is the best reading; the digits 9, 3 and 8 are uncertain / Fragment B, Molecular Weight: very small print, 1980.23 is the best reading; the digits 9, 8 and 3 are uncertain […]
Supplementary Information
A Labelled-Ubiquicidin Antimicrobial Peptide for Immediate In Situ Optical Detection of Live Bacteria in Human Alveolar Lung Tissue
Ahsan R Akram, Nicolaos Avlonitis, Annamaria Lilienkampf, Ana M Perez-Lopez, Neil McDonald, Sunay V Chankeshwara, Emma Scholefield, Christopher Haslett, Mark Bradley & Kevin Dhaliwal.
Figure S1: MALDI-TOF MS spectra for a stability study of UBI-3 in PBS and in ARDS BALF […]
Figure S2. MALDI-TOF MS spectra of modified analogues UBI-4 to UBI-9 in Phosphate Buffered Saline and ARDS BALF over a period of 5 and 30min.
Figure S3: MALDI-TOF MS spectra of UBI-11 in Phosphate Buffered Saline vs ARDS BALF […]
Figure S4. Quantified fluorescence of confocal microscopy images of the compounds UBI-3, UBI-5 and UBI-10 on three bacteria and fluorescence retention following a PBS wash.
Figure S5: Fibered confocal fluorescence microscopy imaging of human lung and Calcein AM stained Methicillin sensitive S. aureus.
Experimental Details including Tables M1-4, Figure M1 and HPLC Chromatograms.
(also on this page, place not known: Electronic Supplementary Material (ESI) for Chemical Science. This journal is © The Royal Society of Chemistry 2015)
(1 picture or pasted object on this page, not shown here) […]
BALF Retrieval: Bronchoalveolar lavage was performed in the Intensive Care Unit (ICU), as previously described. S5 Pooled samples from three patients were used for stability assays. […]
Exposure to 488 nm light was limited to 5% […]

Compound	stability in ARDS BALF
CCCC[C@H](NC(=O)[C@H](CCCNC(=N)N)NC(=O)[C@H](CCCNC(=N)N)NC(=O)[C@H](CCCCN)NC(=O)[C@H](C)NC(=O)[C@H](CCCNC(=N)N)NC(=O)CNC(=O)[C@@H](NC(=O)CCCCCNc1ccc([N+](=O)[O-])c2nonc12)[C@@H](C)O)C(=O)N[C@@H](CCC(N)=O)C(=O)N[C@@H](Cc1ccc(O)cc1)C(=O)N[C@@H](CC(N)=O)C(=O)N[C@@H](CCCNC(=N)N)C(=O)N[C@@H](CCCNC(=N)N)C(=O)NCCOCCOCC(=O)NCCOCCOCC(N)=O [UBI-7] ({NBD-Ahx}-TGRAKRR[Nle]QYNRR[AEEA][AEEA]-NH2)	did not improve stability in ARDS BALF; also recorded: Unstable in ARDS BALF at 30 minutes
